In ChEMBL document CHEMBL1201862, “PubChem BioAssay data set” (2004):
Activity calls are given as the source filed them.

How the values were obtained:
[1] = biological target: T1, Neuropeptide Y receptor type 2 (Homo sapiens, UniProt P49146); assay: Fluorescence-based cell-based high-throughput dose response assay for agonists of NPY-Y2. [Related pubchem assays: 1703 (Screening assay (CNGC inhibitors).), 1359 (Screening assay (NPY-Y2 potentiators or agonists).), 1304 (Screening assay (NPY-Y1 potentiators or agonists).), 1710 (Screening assay (NPY-Y2 agonists).), 1791 (Summary AID.)]; assay type: functional
T1 sequence (P49146 whole entry): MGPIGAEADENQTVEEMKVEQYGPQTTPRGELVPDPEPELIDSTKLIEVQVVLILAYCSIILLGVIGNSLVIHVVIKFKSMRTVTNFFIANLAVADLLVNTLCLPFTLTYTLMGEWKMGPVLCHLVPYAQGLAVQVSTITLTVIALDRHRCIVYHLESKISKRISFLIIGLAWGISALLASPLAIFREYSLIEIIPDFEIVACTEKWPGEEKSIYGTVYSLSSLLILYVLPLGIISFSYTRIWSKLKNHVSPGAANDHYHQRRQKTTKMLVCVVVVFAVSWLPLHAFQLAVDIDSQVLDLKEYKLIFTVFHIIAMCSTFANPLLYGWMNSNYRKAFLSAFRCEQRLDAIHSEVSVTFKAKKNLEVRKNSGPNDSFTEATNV

[2] = biological target: T2, Neuropeptide Y receptor type 1 (Homo sapiens, UniProt P25929); assay: Fluorescence-based counterscreen for agonists of NPY-Y2: cell-based high-throughput dose response assay for agonists of NPY-Y1.; assay type: functional
T2 sequence (P25929 whole entry): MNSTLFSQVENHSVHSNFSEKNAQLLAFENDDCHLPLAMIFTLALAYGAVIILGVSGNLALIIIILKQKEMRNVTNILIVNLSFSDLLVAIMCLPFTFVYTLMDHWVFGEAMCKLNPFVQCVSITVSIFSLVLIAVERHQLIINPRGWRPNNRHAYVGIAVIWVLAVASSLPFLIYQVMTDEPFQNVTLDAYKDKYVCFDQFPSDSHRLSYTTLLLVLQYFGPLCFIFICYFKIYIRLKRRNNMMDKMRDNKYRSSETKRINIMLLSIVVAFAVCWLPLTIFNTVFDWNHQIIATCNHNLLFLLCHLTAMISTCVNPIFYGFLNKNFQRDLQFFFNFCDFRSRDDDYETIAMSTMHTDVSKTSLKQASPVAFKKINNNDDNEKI

HEK293 [3] = assay: Fluorescence-based counterscreen for potentiators or agonists of NPY-Y2: cell-based high-throughput dose response assay to identify inhibitors of cyclic nucleotide gated ion channel (CNGC) activity. In this assay, the parental HEK293 cell line transfected with a cyclic-nucleotide gated ion channel (CNGC)-based cAMP sensor is used to measure inhibition of isoproterenol-induced CNGC activity by test compound.; assay type: functional; conditions: Homo sapiens
[4] = biological target: Lysosomal acid glucosylceramidase (Homo sapiens, UniProt P04062); assay: Dose response cell-based high throughput screening assay to identify enhancers of beta-glucosidase activity. [Related pubchem assays: 784 ]; assay type: functional
Lysosomal acid glucosylceramidase, sequence (P04062 whole entry): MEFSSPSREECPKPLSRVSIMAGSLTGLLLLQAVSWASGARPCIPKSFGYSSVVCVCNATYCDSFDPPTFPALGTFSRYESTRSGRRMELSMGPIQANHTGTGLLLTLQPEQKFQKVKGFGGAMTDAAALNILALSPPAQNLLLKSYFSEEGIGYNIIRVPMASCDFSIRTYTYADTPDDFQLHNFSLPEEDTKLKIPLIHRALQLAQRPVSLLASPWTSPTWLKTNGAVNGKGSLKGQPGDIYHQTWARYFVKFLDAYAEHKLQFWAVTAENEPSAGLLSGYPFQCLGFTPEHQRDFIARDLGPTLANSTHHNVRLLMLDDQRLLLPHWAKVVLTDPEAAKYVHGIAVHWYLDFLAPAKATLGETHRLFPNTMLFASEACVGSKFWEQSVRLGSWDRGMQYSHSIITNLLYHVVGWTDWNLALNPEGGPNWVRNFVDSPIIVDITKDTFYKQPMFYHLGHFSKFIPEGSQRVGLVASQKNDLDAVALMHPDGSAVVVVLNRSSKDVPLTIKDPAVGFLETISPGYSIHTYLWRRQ

Mucolipin-3 = Mucolipin-3 (Homo sapiens, UniProt Q8TDD5); assay: Dose response cell-based high-throughput screening assay for agonists of the transient receptor potential channel ML3 (TRPML3). [Related pubchem assays: 1526, 1424, 1448 ]; assay type: functional
Mucolipin-3, sequence (Q8TDD5 whole entry): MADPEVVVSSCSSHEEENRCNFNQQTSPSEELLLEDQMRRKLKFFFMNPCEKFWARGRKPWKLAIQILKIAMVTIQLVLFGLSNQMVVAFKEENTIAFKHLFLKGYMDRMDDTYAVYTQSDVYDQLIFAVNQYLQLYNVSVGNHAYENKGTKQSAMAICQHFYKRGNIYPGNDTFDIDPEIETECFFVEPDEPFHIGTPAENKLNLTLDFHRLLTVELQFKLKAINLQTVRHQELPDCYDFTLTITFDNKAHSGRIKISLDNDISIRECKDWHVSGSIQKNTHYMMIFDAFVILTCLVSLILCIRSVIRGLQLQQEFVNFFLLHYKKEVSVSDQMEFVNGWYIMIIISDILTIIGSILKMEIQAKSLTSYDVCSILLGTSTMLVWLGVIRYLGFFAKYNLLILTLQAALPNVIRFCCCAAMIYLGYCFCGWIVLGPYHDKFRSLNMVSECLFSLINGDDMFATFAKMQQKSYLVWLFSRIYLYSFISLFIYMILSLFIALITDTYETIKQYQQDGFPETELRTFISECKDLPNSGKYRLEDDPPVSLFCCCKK

Ion channel NompC = Ion channel NompC (Danio rerio, UniProt Q7T1G6); assay: Fluorescence counterscreen assay for TRPML3 agonists: dose response cell-based high-throughput screening assay to identify agonists of the transient receptor potential channel N1 (TRPN1). [Related pubchem assays: 1526, 1424, 1448 ]; assay type: functional
[5] = biological target: T3, Luciferin 4-monooxygenase (Photinus pyralis, UniProt P08659); assay: Counter Screen for Luciferase-based Assay Positives. [Related pubchem assays: 620, 618, 411 ]
T3 sequence (P08659 whole entry): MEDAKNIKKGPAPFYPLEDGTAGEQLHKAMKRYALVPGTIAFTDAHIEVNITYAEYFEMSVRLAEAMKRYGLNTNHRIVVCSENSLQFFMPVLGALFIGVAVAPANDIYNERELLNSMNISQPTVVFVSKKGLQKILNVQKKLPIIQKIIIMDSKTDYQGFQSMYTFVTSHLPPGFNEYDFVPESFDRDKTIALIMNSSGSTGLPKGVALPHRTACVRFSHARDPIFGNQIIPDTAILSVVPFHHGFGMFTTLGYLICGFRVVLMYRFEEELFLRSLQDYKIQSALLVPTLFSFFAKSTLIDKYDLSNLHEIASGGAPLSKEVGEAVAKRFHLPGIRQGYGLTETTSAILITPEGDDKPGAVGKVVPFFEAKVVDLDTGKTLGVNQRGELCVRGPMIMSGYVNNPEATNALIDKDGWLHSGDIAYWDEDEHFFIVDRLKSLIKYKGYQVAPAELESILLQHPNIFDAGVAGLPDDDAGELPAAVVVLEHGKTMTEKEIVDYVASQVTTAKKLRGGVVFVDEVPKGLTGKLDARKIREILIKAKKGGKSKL

HT-1080 = assay: cytotoxicity in HT1080 fibrosarcoma cells, cell-based, fluorescence readout (AID 620); assay type: functional; conditions: Homo sapiens
[6] = biological target: Mothers against decapentaplegic homolog 3 (Homo sapiens, UniProt P84022); assay: Smad3 binding inhibitors, lysate ELISA, dose response, cell lysate, secondary confirmation, chemiluminescent ELISA, HEK293 lysate (AID 1058); assay type: functional
Mothers against decapentaplegic homolog 3, sequence (P84022 whole entry): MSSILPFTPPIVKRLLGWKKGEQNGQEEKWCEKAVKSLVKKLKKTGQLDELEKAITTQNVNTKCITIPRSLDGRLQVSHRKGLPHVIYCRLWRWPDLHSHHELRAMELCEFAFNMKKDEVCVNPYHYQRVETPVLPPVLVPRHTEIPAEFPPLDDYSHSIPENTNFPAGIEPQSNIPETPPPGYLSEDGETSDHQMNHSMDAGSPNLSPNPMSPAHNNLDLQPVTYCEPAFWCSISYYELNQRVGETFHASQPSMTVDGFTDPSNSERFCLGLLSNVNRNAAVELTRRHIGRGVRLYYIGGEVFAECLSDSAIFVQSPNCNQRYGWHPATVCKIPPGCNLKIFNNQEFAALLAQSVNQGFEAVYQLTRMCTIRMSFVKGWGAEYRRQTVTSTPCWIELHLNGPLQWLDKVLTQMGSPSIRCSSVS

HEK293 [7] = assay: Cytotoxicity assay in HEK293 cells. [Related pubchem assays (depositor defined):AID1266, AID1269, AID1270, AID1271, AID1280, AID1281, AID1282, AID1283, AID1287, AID1289, AID1290, AID1291, AID1292, AID1293, AID1294, AID1295, AID1299, AID1302, AID1364, AID1365, AID1366, AID1367, AID1369, AID1370, AID1371, AID1372, AID1373, AID1374, AID1375, AID1384 …; assay type: functional, cell-based; conditions: Homo sapiens
HEK293 [8] = assay: PMA/Ionomycin induced NF-kB luciferase assay in 293- NF-kB-Luc stable cells. [Related pubchem assays: 1299, 1270, 1295, 1375, 1287, 1281, 1293, 1291, 1289, 1280, 465, 1364, 1282, 1372, 1365, 1370, 1367, 1366, 1269, 1373, 1292, 1290, 1302, 1371, 1283, 1271, 1294, 1374, 1368, 1369 ]; assay type: functional, cell-based; conditions: Homo sapiens
[9] = biological target: T3, Luciferin 4-monooxygenase; assay: In vitro luciferase assay using purified luciferase. [Related pubchem assays: 1299, 1270, 1295, 1375, 1287, 1281, 1293, 1291, 1289, 1280, 465, 1364, 1282, 1372, 1365, 1370, 1367, 1366, 1266, 1373, 1292, 1290, 1302, 1371, 1283, 1271, 1294, 1374, 1368, 1369 ]
Staphylococcus aureus = assay: Inhibitors of Bacterial Quorum Sensing Structure Activity Relationship (SAR) Analysis: Dose Response Assay. [Related pubchem assays: 700, 527 ]; assay type: functional, organism-based
[10] = Luminescence-based dose response cell-based high throughput screening assay for cytotoxic compounds using the IEC-6 intestinal epithelial cell line. [Related pubchem assays: 1858 (Summary AID.), 1825 (Counterscreen.), 1907 (Confirmation screen.)]; assay type: functional
[11] = inhibitors of firefly luciferase expression or activity, dose response, H4 neuroglioma cells, luminescence (AID 1990); assay type: functional, cell-based
[12] = cytotoxicity in HEK-293T cells, dose response, cytotoxicity control for TCR NF-kB inhibitor project, luminescence, T-cell screen hits (AID 489026); assay type: functional, cell-based;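 also: cells exposed to compound about 14 hours before the viability readout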
[13] = inhibitors of SNCA 5'UTR-driven translation, confirmation, luminescence, H4 neuroglioblastoma cells, dose confirmation (AID 2454); assay type: functional, cell-based;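 also: H4 neuroglioblastoma cells carrying an alpha-synuclein 5'UTR luciferase reporter; potency for inhibition of the luciferase signal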
[14] = luciferase reporter signal reduction – luminescence, H4-C neuroglioblastoma cells, dose response (AID 2458); assay type: functional, cell-based;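 also: H4 neuroglioblastoma cells stably carrying a luciferase reporter gene fusion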
cells = assay type: functional, cell-based
[15] = inhibitors of SNCA 5'UTR-driven reporter translation, confirmation, H4 neuroglioma cells, luminescence (AID 1988); assay type: functional, cell-based
Streptococcus = assay: Luminescence Microorganism-Based Dose Response Follow up to Identify Compounds Cytotoxic to Streptococcus. [Related pubchem assays: 1677 (Project Summary), 1915, 1914, 1902 (Retest at Dose), 1900 (Counter Screen), 1662 (Primary HTS)]; assay type: functional, organism-based
[16] = biological target: Transitional endoplasmic reticulum ATPase (Homo sapiens, UniProt P55072, C522A); assay: C522A mutant p97 ATPase inhibitors, dose response, counter-screen for p97 inhibitor project, biochemical, luminescence (AID 1544)
Transitional endoplasmic reticulum ATPase (Homo sapiens, UniProt P55072, C522A), sequence (P55072 2-806 C522A limits assumed): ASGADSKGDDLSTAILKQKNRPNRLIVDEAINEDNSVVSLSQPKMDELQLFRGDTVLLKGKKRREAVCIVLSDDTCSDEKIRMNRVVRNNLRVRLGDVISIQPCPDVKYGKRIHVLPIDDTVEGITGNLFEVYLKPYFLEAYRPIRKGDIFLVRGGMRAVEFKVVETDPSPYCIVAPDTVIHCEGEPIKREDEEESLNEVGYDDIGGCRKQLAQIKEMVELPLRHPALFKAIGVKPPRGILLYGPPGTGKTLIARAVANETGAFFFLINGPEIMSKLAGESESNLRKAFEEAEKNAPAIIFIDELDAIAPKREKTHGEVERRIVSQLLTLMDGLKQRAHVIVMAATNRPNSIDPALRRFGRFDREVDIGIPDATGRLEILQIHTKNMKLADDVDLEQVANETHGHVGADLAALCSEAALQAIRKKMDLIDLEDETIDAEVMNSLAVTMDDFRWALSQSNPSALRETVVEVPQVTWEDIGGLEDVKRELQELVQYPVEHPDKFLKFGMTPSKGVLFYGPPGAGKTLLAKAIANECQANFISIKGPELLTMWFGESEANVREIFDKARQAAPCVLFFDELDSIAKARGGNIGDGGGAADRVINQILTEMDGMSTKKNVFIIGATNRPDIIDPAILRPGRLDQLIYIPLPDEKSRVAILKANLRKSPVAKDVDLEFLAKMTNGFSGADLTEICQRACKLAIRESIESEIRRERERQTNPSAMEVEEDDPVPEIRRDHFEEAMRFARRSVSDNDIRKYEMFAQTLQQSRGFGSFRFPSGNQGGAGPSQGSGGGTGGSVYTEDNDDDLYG

[17] = biological target: Transitional endoplasmic reticulum ATPase (Homo sapiens, UniProt P55072); assay: p97 ATPase inhibitors, dose response, biochemical (AID 1534)
Transitional endoplasmic reticulum ATPase (Homo sapiens, UniProt P55072), sequence (P55072 whole entry, the tested form may be a part): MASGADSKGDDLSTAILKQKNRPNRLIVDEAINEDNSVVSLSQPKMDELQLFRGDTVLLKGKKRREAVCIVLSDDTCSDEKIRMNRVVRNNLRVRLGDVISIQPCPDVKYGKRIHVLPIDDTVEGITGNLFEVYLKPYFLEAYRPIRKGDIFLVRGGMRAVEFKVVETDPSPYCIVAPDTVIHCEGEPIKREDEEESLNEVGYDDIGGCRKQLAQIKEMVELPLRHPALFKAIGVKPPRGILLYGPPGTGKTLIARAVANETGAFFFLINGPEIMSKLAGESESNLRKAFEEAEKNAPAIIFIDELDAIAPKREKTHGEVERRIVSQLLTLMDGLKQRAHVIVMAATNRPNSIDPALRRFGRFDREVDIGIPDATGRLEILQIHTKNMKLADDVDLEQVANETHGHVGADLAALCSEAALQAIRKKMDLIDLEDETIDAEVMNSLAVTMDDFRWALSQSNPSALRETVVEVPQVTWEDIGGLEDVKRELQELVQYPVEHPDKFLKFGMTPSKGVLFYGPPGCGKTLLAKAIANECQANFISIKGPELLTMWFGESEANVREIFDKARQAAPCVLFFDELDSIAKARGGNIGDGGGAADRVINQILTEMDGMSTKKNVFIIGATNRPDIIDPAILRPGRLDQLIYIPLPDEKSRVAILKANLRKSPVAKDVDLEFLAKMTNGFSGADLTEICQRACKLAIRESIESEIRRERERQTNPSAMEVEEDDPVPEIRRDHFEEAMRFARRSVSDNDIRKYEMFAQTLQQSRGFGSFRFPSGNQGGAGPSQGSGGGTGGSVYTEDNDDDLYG

[18] = biological target: T4, RNA-binding protein pos-1 (Caenorhabditis elegans, UniProt G5EF15); assay: inhibitors of POS-1/mex-3 RNA binding, dose response, biochemical, fluorescence polarization (AID 1964);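 also: purified POS-1 fused to maltose binding protein made in E. coli; potency of compounds blocking POS-1 binding to fluorescent RNA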
T4 sequence (G5EF15 whole entry): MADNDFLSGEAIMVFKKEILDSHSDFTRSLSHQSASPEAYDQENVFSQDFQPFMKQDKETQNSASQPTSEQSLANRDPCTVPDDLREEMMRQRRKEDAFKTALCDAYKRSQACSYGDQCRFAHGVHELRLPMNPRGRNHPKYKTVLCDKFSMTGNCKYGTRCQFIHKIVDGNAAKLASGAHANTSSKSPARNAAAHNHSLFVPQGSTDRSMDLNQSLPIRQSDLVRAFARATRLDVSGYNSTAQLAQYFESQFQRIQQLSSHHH

[19] = THP-1 cell cytotoxicity, dose response, cytotoxicity control for Vif-APOBEC3G degradation inhibitor project, THP-1 cells (AID 1117359); assay type: functional; conditions: Human immunodeficiency virus 1, THP-1
[20] = biological target: FAD-linked sulfhydryl oxidase ALR (Homo sapiens, UniProt P55789); assay: inhibitors of human ALR sulfhydryl oxidase, dose response, biochemical, H2O2 detection, luminescence, cherry-pick (AID 493248)
FAD-linked sulfhydryl oxidase ALR, sequence (P55789 whole entry): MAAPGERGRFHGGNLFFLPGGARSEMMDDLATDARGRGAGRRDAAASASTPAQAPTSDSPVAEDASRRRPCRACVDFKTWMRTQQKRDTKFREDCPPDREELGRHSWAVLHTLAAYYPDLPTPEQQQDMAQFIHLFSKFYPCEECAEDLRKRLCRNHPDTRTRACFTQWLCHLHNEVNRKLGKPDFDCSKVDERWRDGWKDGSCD

Large T antigen = Large T antigen (Simian virus 40, UniProt P03070); assay type: functional, Betapolyomavirus macacae;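 also: Confirmatory-stage PubChem screen for compounds that inhibit SV40 T antigen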
Large T antigen, sequence (P03070 whole entry): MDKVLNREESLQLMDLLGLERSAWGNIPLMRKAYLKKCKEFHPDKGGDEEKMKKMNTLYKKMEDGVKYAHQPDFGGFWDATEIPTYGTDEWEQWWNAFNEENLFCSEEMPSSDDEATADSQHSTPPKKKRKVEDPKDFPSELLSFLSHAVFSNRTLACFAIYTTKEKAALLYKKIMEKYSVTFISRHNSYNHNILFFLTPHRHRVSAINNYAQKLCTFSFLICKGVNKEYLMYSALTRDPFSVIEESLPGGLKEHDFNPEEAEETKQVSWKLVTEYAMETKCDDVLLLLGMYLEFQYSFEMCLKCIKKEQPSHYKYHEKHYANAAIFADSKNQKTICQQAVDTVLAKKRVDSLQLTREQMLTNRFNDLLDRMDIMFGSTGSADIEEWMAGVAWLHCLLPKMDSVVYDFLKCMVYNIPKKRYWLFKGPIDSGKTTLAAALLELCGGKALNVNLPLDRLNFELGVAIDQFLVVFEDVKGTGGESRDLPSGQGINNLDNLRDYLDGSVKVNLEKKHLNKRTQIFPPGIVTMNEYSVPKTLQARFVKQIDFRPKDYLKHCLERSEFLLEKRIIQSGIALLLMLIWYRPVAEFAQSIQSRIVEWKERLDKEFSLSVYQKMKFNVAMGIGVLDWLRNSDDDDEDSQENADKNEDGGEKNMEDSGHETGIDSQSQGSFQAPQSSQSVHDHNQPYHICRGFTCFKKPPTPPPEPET

[21] = cytotoxicity in HPDE-C7 cells, cell-based, fluorescence, HTS (AID 430); assay type: functional; conditions: Homo sapiens
[22] = cytotoxicity in KRAS-transformed pancreatic duct cells, primary screen, cell-based, fluorescence, HTS (AID 431); assay type: functional; conditions: Homo sapiens;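 also: cell line used: HPDE-C7K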
Procathepsin L = Procathepsin L (Homo sapiens, UniProt P07711)
Procathepsin L, sequence (P07711 whole entry): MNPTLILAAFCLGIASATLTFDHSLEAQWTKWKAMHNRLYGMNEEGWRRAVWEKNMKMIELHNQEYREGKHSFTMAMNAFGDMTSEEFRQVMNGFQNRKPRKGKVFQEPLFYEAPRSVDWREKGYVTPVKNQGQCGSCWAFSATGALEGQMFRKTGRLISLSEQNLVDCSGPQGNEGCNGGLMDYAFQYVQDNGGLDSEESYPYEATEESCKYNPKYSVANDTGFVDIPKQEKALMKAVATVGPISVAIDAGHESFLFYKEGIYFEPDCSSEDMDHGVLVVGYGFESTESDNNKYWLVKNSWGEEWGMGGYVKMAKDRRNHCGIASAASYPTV

[23] = biological target: T5, Zinc finger protein mex-5 (Caenorhabditis elegans, UniProt Q9XUB2); assay: MEX-5/TCR-2 RNA interaction inhibitors, dose response, biochemical, C. elegans, fluorescence polarization (AID 1960)
T5 sequence (Q9XUB2 whole entry): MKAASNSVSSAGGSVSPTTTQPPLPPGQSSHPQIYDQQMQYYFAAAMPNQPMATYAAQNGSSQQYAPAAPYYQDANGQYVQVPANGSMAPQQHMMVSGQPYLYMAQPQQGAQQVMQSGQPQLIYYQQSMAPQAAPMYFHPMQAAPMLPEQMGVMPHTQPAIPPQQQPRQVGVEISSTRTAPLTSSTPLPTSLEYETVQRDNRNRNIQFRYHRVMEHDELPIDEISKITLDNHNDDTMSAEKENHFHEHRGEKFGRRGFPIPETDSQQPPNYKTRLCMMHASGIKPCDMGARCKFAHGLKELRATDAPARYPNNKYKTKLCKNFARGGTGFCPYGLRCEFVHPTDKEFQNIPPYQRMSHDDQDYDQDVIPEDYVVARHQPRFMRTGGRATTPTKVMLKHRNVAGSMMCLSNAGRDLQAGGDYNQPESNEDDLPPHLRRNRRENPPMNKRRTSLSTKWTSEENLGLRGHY

Aspartyl aminopeptidase = biological target: T6, Aspartyl aminopeptidase (Plasmodium falciparum 3D7, UniProt Q8I2J3)
T6 sequence (Q8I2J3 whole entry): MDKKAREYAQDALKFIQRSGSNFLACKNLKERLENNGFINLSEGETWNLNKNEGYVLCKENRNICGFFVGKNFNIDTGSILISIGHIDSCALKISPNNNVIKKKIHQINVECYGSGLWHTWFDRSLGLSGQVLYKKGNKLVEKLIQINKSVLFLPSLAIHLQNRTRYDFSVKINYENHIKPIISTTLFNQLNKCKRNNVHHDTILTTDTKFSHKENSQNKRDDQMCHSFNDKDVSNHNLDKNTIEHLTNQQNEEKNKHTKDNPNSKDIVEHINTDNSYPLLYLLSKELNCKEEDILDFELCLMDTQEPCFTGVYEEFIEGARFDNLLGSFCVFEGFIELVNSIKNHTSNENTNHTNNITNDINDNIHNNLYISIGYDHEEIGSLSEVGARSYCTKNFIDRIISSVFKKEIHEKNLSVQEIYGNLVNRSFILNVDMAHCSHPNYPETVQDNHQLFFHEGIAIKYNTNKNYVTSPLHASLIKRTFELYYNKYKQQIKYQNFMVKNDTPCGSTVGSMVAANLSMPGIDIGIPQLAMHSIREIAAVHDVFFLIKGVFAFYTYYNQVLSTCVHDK

SMILES: O=C(NCCCn1ccnc1)Nc1ccc(Cl)cc1
- EC50 [1]: > 35.4 µM (not active)
- EC50 [2]: > 35.4 µM (not active)
- EC50 (HEK293 [3]): > 35.4 µM (not active)
- EC50 [4]: > 50 µM (not active)

SMILES: Cc1cc(C)c(C(=O)c2ccc(C(=O)N(C(C)C)C(C)C)cc2)c(C)c1
- EC50 (Mucolipin-3): 2.24 µM (active)
- EC50 (Ion channel NompC): > 29.9 µM (not active)

SMILES: Cc1nn2cc(-c3ccccc3)nc2s1
- EC50 [5]: 0.7 µM (active)
- EC50 (HT-1080): > 50 µM (not active)

SMILES: O=C1OC2(c3ccc(O)c(O)c3Oc3c2ccc(O)c3O)c2c(Cl)c(Cl)c(Cl)c(Cl)c21
- IC50 [6]: 12.4 µM (active)

SMILES: C/C(=N\NC(=O)c1cccc([N+](=O)[O-])c1)c1ccccn1
- EC50 (HEK293 [7]): 10.2 µM (inactive)
- EC50 (HEK293 [8]): 6.12 µM (not active)
- EC50 [9]: > 8 µM (not active)

SMILES: Cc1ccc(C)c(S(=O)(=O)c2nnn3c2[nH]c(=O)c2sccc23)c1
- IC50 (Staphylococcus aureus): 5.17 µM (active)

SMILES: Cc1ccc(Nc2nc(-c3c(C)nc4ccccn34)cs2)cc1
- IC50 [10]: 0.0895 µM (active)
- EC50 [11]: < 0.1 µM (active)
- IC50 [12]: > 80 µM (inactive)
- EC50 [13]: 0.013 µM (active)
- EC50 [14]: 0.021 µM (active)
- EC50 (cells): 0.027 µM (active)
- EC50 [15]: < 0.1 µM (active)

SMILES: O=C(c1ccc(F)cc1)n1c2ccccc2c2ccccc21
- EC50 (Streptococcus): > 500 µM (not active)

SMILES: COc1ccc(/C=N/Nc2nnc(-c3ccccc3)c(O)n2)cc1
- IC50 [16]: > 50 µM (not active)
- IC50 [17]: > 50 µM (not active)

SMILES: Oc1ccc(/C=C/c2cc(O)cc(O)c2)cc1 [RESVERATROL]
- EC50 [18]: > 300 µM (not active)
- CC50 [19]: 26.3 µM (active)
- AC50 [20]: 4.02 µM (active)
- IC50 (Large T antigen): 26.2 µM (active)
- EC50 [21]: 6.97 µM (active)
- EC50 [22]: > 20 µM (not active)
- IC50 (Procathepsin L): > 59.6 µM (not active)
- EC50 [23]: 163 µM (active)
- IC50 (Aspartyl aminopeptidase): 2.24 µM (active)
